Measurements from ChEMBL document CHEMBL1275446, “Stronger activity of human immunodeficiency virus type 1 protease inhibitors against clinical isolates of Plasmodium vivax than against those of P. falciparum” (Antimicrob Agents Chemother, 2008).
One block for each compound: values may come before it.

Key:
Plasmodium falciparum [1] = test: Antimicrobial activity against Plasmodium falciparum at ring stage; assay type: functional, organism-based
Plasmodium vivax [2] = test: Antimicrobial activity against Plasmodium vivax at ring stage
Plasmodium vivax [3] = test: Antimicrobial activity against Plasmodium vivax at trophozoite stage; assay type: functional, organism-based
Plasmodium vivax [4] = test: Antimicrobial activity against Plasmodium vivax harboring single copy of Pvmdr1 gene; assay type: functional, organism-based
Plasmodium vivax [5] = test: Antimicrobial activity against Plasmodium vivax harboring amplified Pvmdr1 gene; assay type: functional, organism-based
Plasmodium falciparum [6] = test: Antimicrobial activity against Plasmodium falciparum harboring amplified Pfmdr1 gene
Plasmodium falciparum [7] = test: Antimicrobial activity against Plasmodium falciparum harboring single copy of Pfmdr1 gene

IC50 (Plasmodium falciparum [1]): 8300 nM
SMILES: CC(C)(C)NC(=O)[C@@H]1C[C@@H]2CCCC[C@@H]2CN1C[C@@H](O)[C@H](Cc1ccccc1)NC(=O)[C@H](CC(N)=O)NC(=O)c1ccc2ccccc2n1

IC50 (Plasmodium vivax [2]): 38 nM
IC50 (Plasmodium vivax [3]): 442 nM
SMILES: CCN(CC)CCCC(C)Nc1ccnc2cc(Cl)ccc12 (centres undefined) [CHLOROQUINE]

SMILES: OC(c1cc(C(F)(F)F)nc2c(C(F)(F)F)cccc12)C1CCCCN1 (centres undefined) [MEFLOQUINE]
IC50 (Plasmodium falciparum [1]): 137 nM
IC50 (Plasmodium vivax [4]): 43 nM
IC50 (Plasmodium vivax [5]): 176 nM
IC50 (Plasmodium falciparum [6]): 182 nM
IC50 (Plasmodium falciparum [7]): 77 nM

IC50 (Plasmodium falciparum [1]): 9660 nM
SMILES: CC(C)c1nc(CN(C)C(=O)N[C@H](C(=O)N[C@@H](Cc2ccccc2)C[C@H](O)[C@H](Cc2ccccc2)NC(=O)OCc2cncs2)C(C)C)cs1 [RITONAVIR]
